Where two headings read alike, the source gives them in different places.
System: breast cancer cell line MCF-7
Test: MCF-7 cell growth study (celltiter-glo luminescent viability assay);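 note: viability read by luminescence after compound exposure, relative to DMSO vehicle-treated wells on the same plate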
Type: cell-based, human
Conditions: MCF-7 cells, 6 days incubation, read-out: IC50 (nM), cell growth inhibition
Experimental: Compound activity was analyzed using celltiter-glo luminescent viability assay (Promega #G7572) in breast cancer cell line MCF-7. Cells grown in log phase are trypsinized and seeded into a 96-well cell culture plate at a density of 2×10^3 per well and incubated overnight at 37° C. with 5% CO2 in humidified culture chamber. The next day, compounds were prepared in 100% DMSO and were serially diluted and added into cells in the following final concentrations: 316, 100, 31.6, 10, 3.16, 1, 0.32, 0.1, 0.03, 0.01, 0.003 and 0.001 nM. As a control, same volume and concentration of DMSO vehicle control solution was added to the control wells in each plate. The cells were incubated with compounds at 37° C. culture chamber for 6 days. Promega's celltiter-glo kit was used to analyze the cell viability, according to manufacture's instruction. Briefly, fifty microliter of celltiter-glo reagent was added to each well, plate (covered with aluminum foil) was gently vibrated for 10 min to induce cell lysis at room temperature. Luminescence was measured using a SPECTRAmax i3 reader.

| Compound | IC50 [nM] | IC50 (Homo sapiens, MCF7, 144 h) [nM] |
| --- | --- | --- |
| CCC1Cc2c([nH]c3ccccc23)C(c2c(F)cc(/C=C/C(=O)O)cc2F)N1CC(C)(C)F (single isomer, unassigned) [Compound 40A] | 0.9 |  |
| CCC1Cc2c([nH]c3ccccc23)C(c2c(F)cc(/C=C/C(=O)O)cc2F)N1CC(C)(C)F (single isomer, unassigned) [Compound 40B] | > 100 |  |
| CC1Cc2c([nH]c3ccc(Cl)cc23)C(c2c(F)cc(/C=C/C(=O)O)cc2F)N1CC(C)(C)F (single isomer, unassigned) [Compound 42A] | 1.9 |  |
| CC1Cc2c([nH]c3ccc(Cl)cc23)C(c2c(F)cc(/C=C/C(=O)O)cc2F)N1CC(C)(C)F (single isomer, unassigned) [Compound 42B] | > 100 |  |
| C[C@@H]1Cc2c([nH]c3ccccc23)[C@@H](c2c(F)cc(OCCN3CCCC3)cc2F)N1CC(C)(F)F [Compound 2] |  | 0.9 |
| C[C@@H]1Cc2c([nH]c3ccccc23)[C@@H](c2c(F)cc(OCCN3CCCCC3)cc2F)N1CC(C)(F)F [Compound 3] |  | 0.6 |
| C[C@@H]1Cc2c([nH]c3ccccc23)[C@@H](c2c(F)cc(OCCN3CCCCCC3)cc2F)N1CC(C)(F)F [Compound 4] |  | 0.9 |
| C[C@@H]1Cc2c([nH]c3ccccc23)[C@@H](c2c(F)cc(OCCN3CCCCCC3)cc2F)N1CC(C)(C)F [Compound 8] |  | 1 |
| C[C@@H]1Cc2c([nH]c3ccccc23)[C@@H](c2c(Cl)cc(OCCN3CC(CF)C3)cc2Cl)N1CC(C)(C)F [Compound 9] |  | 3.1 |
| C[C@@H]1Cc2c([nH]c3ccccc23)[C@@H](c2c(Cl)cc(OCCN3CC(CF)C3)cc2Cl)N1CC(C)(F)F [Compound 10] |  | 3.2 |
| CC1Cc2c([nH]c3ccc(F)cc23)C(c2c(F)cc(OCCN3CC(CF)C3)cc2F)N1CC(C)(C)F (centres unmarked) [Compound 13A] | 0.5 |  |
| CC1Cc2c([nH]c3ccc(F)cc23)C(c2c(Cl)cc(OCCN3CC(CF)C3)cc2Cl)N1CC(C)(C)F (centres unmarked) [Compound 14B] |  | 2.6 |
| COc1ccc2c3c([nH]c2c1)C(c1c(F)cc(OCCN2CC(CF)C2)cc1F)N(CC(C)(C)F)C(C)C3 (centres unmarked) [Compound 15A] |  | 1.8 |
| CC(C)(F)CN1C(c2c(F)cc(OCCN3CC(CF)C3)cc2F)c2[nH]c3ccccc3c2CC1C(F)(F)F (centres unmarked) [Compound 16A] | 0.6 |  |
| CC1Cc2c(oc3ccccc23)C(c2c(F)cc(OCCN3CC(CF)C3)cc2F)N1CC(C)(C)F (centres unmarked) [Compound 17A] | 0.8 |  |
| CC1Cc2c(oc3ccccc23)C(c2c(Cl)cc(OCCN3CC(CF)C3)cc2Cl)N1CC(C)(C)F (centres unmarked) [Compound 18] |  | 8.9 |
| CC1Cc2c([nH]c3ncccc23)C(c2c(F)cc(OCCN3CC(CF)C3)cc2F)N1CC(C)(F)F (centres unmarked) [Compound 19A] |  | 3.1 |
| COc1ccc2c3c([nH]c2c1)C(c1c(F)cc(/C=C/C(=O)O)cc1F)N(CC(C)(C)F)C(C)C3 (centres unmarked) [Compound 22A] | 2.6 |  |

| Compound | IC50 [nM] | IC50 (Homo sapiens, MCF7, 144 h) [nM] |
| --- | --- | --- |
| CC1Cc2c([nH]c3ccc(O)cc23)C(c2c(F)cc(/C=C/C(=O)O)cc2F)N1CC(C)(C)F (centres unmarked) [Compound 23] | 4.2 |  |
| C[C@@H]1Cc2c([nH]c3ccccc23)[C@@H](c2c(F)cc(/C=C/C(=O)O)cc2F)N1CC1(F)CC1 [Compound 24] | 1.9 |  |
| CC1Cc2c([nH]c3ccc(F)cc23)C(c2c(Cl)cc(/C=C/C(=O)O)cc2Cl)N1CC(C)(C)F (centres unmarked) [Compound 27B] |  | 0.7 |
| CC1Cc2c([nH]c3ccc(F)cc23)C(c2c(Cl)cc(/C=C/C(=O)O)cc2Cl)N1CC(C)(F)F (centres unmarked) [Compound 28] | 1.3 |  |
| C[C@@H]1Cc2c([nH]c3ccccc23)[C@@H](c2c(F)cc(/C=C/C(=O)O)cc2F)N1CC1(C)CC1 [Compound 30] |  | 1 |
| CC(C)(F)CN1C(c2c(F)cc(/C=C/C(=O)O)cc2F)c2[nH]c3ccccc3c2CC1C(F)(F)F (centres unmarked) [Compound 31A] |  | 0.4 |
| CC1Cc2c([nH]c3ncccc23)C(c2c(F)cc(/C=C/C(=O)O)cc2F)N1CC(C)(C)F (centres unmarked) [Compound 32A] |  | 1.9 |
| CC1Cc2c([nH]c3ccc(F)cc23)C(c2c(F)cc(/C=C/C(=O)O)cc2F)N1CC(C)(F)F (centres unmarked) [Compound 33A] |  | 1.2 |
| CC1Cc2c([nH]c3cc(F)ccc23)C(c2c(F)cc(/C=C/C(=O)O)cc2F)N1CC(C)(F)F (centres unmarked) [Compound 35A] |  | 2.5 |
| CC1Cc2c([nH]c3cc(O)ccc23)C(c2c(F)cc(/C=C/C(=O)O)cc2F)N1CC(C)(C)F (centres unmarked) [Compound 36] |  | 16 |
| COc1ccc2[nH]c3c(c2c1)CC(C)N(CC(C)(C)F)C3c1c(F)cc(/C=C/C(=O)O)cc1F (centres unmarked) [Compound 37A] |  | 2.9 |
| CC(C)CN1C(C)Cc2c([nH]c3ccc(F)cc23)C1c1c(F)cc(/C=C/C(=O)O)cc1F (centres unmarked) [Compound 39A] |  | 2.6 |
| CC1Cc2c([nH]c3cc(Cl)ccc23)C(c2c(F)cc(/C=C/C(=O)O)cc2F)N1CC(C)(C)F (centres unmarked) [Compound 43B] |  | 0.8 |
| CC1Cc2c(oc3ccccc23)C(c2c(F)cc(/C=C/C(=O)O)cc2F)N1CC(C)(F)F (centres unmarked) [Compound 44A] |  | 7.9 |
| CC1Cc2c(oc3ccccc23)C(c2c(Cl)cc(/C=C/C(=O)O)cc2Cl)N1CC(C)(C)F (centres unmarked) [Compound 45] |  | 8.9 |
| CC1Cc2c(sc3ccccc23)C(c2c(F)cc(/C=C/C(=O)O)cc2F)N1CC(C)(C)F (centres unmarked) [Compound 48A] |  | 4.7 |
| C[C@@H]1Cc2c([nH]c3ccccc23)[C@@H](c2c(F)cc(/C=C/C(=O)O)cc2Cl)N1CC(C)(F)F [Compound 49] |  | 0.5 |
